Columns and labels:
Details in all cases: 48 h
SEM cells [1] = assay: AUC of viability dose-response curve (% viability x log10 dose units); higher = less sensitive
Procedure, shortened: (§1)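 Library compounds in DMSO were applied for 48 h at 37°C at 11 threefold doses (47 μM to 0.79 nM) to medium-adapted leukemia cells in 1536-well plates holding 500 or 1000 cells/well. Luminescence from CellTiter-Glo One was normalised plate by plate against DMSO and cell-free wells. Area under the curve came from trapezoidal integration of a log-logistic fit, after scaling curves that rose above full viability and discarding those that failed quality control. The fit had four parameters and used log10 doses.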

NOMO1 [2] = assay: as above
Procedure, shortened: as §1

P12-Ichikawa [3] = assay: as above
Procedure, shortened: as §1

SEM cells [4] = assay: cell viability relative to DMSO control; higher = less cytotoxic
Procedure, shortened: (§2)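 NOMO1 or SEM (500 cells/well) or P12-Ichikawa (1000 cells/well) leukemia cells were adapted for at least four passages in each medium. They were seeded in 1536-well plates (5 μl) and pin-dosed with library compounds in DMSO over an 11-point threefold series, 47 μM to 0.79 nM. CellTiter-Glo One luminescence was read after 48 h at 37°C. Viability is the per-plate percentage relative to DMSO wells, with cell-free wells as background.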

NOMO1 [5] = assay: as above
Procedure, shortened: as §2

P12-Ichikawa [6] = assay: as above
Procedure, shortened: as §2

CCOc1cc2ncc(C#N)c(Nc3ccc(F)c(Cl)c3)c2cc1NC(=O)/C=C/CN(C)C
AUC of viability dose-response curve
Details | NOMO1 [2] | P12-Ichikawa [3] | SEM cells [1]
HPLM + 10% dialyzed FBS | 323 | 312 | 321
RPMI 5 mM glucose + 10% FBS | 385 | 338 | 300
RPMI 5 mM glucose + 10% dialyzed FBS | 353 | 320 | 312

cell viability [%]
Details | NOMO1 [5] | P12-Ichikawa [6] | SEM cells [4]
HPLM + 10% dialyzed FBS, 0.000781 µM | 120 | 118 | 88.3
HPLM + 10% dialyzed FBS, 0.00234 µM | 133 | 116 | 118
HPLM + 10% dialyzed FBS, 0.00702 µM | 111 | 131 | 120
HPLM + 10% dialyzed FBS, 0.0211 µM | 114 | 122 | 123
HPLM + 10% dialyzed FBS, 0.0632 µM | 127 | 116 | 118
HPLM + 10% dialyzed FBS, 0.19 µM | 84.9 | 71.7 | 73.1
HPLM + 10% dialyzed FBS, 0.569 µM | 80.9 | 80.9 | 71
HPLM + 10% dialyzed FBS, 1.71 µM | 57 | 61.1 | 55.6
HPLM + 10% dialyzed FBS, 5.12 µM | 50.8 | 41.6 | 37.4
HPLM + 10% dialyzed FBS, 15.4 µM | 42.7 | 21.1 | 20.1
HPLM + 10% dialyzed FBS, 46.1 µM | 4.8 | 2.69 | 4.15
RPMI 5 mM glucose + 10% FBS, 0.000781 µM | 118 | 121 | 75.1
RPMI 5 mM glucose + 10% FBS, 0.00234 µM | 128 | 120 | 110
RPMI 5 mM glucose + 10% FBS, 0.00702 µM | 116 | 123 | 108
RPMI 5 mM glucose + 10% FBS, 0.0211 µM | 124 | 128 | 114
RPMI 5 mM glucose + 10% FBS, 0.0632 µM | 123 | 121 | 116
RPMI 5 mM glucose + 10% FBS, 0.19 µM | 118 | 95.2 | 58.9
RPMI 5 mM glucose + 10% FBS, 0.569 µM | 102 | 85.3 | 52.1
RPMI 5 mM glucose + 10% FBS, 1.71 µM | 85.6 | 71.9 | 40.2
RPMI 5 mM glucose + 10% FBS, 5.12 µM | 66.2 | 57.6 | 24.5
RPMI 5 mM glucose + 10% FBS, 15.4 µM | 76.3 | 26.3 | 11.5
RPMI 5 mM glucose + 10% FBS, 46.1 µM | 10.4 | 5.42 | 3.17
RPMI 5 mM glucose + 10% dialyzed FBS, 0.000781 µM | – | – | 79.9
RPMI 5 mM glucose + 10% dialyzed FBS, 0.00234 µM | – | – | 115
RPMI 5 mM glucose + 10% dialyzed FBS, 0.00702 µM | – | – | 131
RPMI 5 mM glucose + 10% dialyzed FBS, 0.0211 µM | – | – | 120
RPMI 5 mM glucose + 10% dialyzed FBS, 0.0632 µM | – | – | 126
RPMI 5 mM glucose + 10% dialyzed FBS, 0.19 µM | – | – | 66.2
RPMI 5 mM glucose + 10% dialyzed FBS, 0.569 µM | – | – | 67.3
RPMI 5 mM glucose + 10% dialyzed FBS, 1.71 µM | – | – | 52
RPMI 5 mM glucose + 10% dialyzed FBS, 5.12 µM | – | – | 29.9
RPMI 5 mM glucose + 10% dialyzed FBS, 15.4 µM | – | – | 11.7
RPMI 5 mM glucose + 10% dialyzed FBS, 46.1 µM | – | – | 3.53

CC[C@@H]1[C@@H](C)O[C@@](O)([C@@H](C)[C@H](O)[C@H](C)[C@H]2OC(=O)/C=C/C=C/[C@H](C)[C@@H]([C@@H](C)[C@@H](O)[C@H](C)[C@@]3(O)C[C@@H](O[C@H]4C[C@H](O)[C@H](O)[C@H](C)O4)[C@H](CC)[C@@H](C)O3)OC(=O)/C=C/C=C/[C@@H]2C)C[C@H]1O[C@H]1C[C@H](O)[C@H](O)[C@H](C)O1
AUC of viability dose-response curve
Details | NOMO1 [2] | P12-Ichikawa [3] | SEM cells [1]
HPLM + 10% dialyzed FBS | 370 | 374 | 368
RPMI 5 mM glucose + 10% FBS | 366 | 403 | 357
RPMI 5 mM glucose + 10% dialyzed FBS | 372 | 380 | 351

cell viability [%]
Details | NOMO1 [5] | P12-Ichikawa [6] | SEM cells [4]
HPLM + 10% dialyzed FBS, 0.000781 µM | – | – | 98.9
HPLM + 10% dialyzed FBS, 0.00234 µM | – | – | 114
HPLM + 10% dialyzed FBS, 0.00702 µM | – | – | 115
HPLM + 10% dialyzed FBS, 0.0211 µM | – | – | 104
HPLM + 10% dialyzed FBS, 0.0632 µM | – | – | 130
HPLM + 10% dialyzed FBS, 0.19 µM | – | – | 113
HPLM + 10% dialyzed FBS, 0.569 µM | – | – | 105
HPLM + 10% dialyzed FBS, 1.71 µM | – | – | 101
HPLM + 10% dialyzed FBS, 5.12 µM | – | – | 6.3
HPLM + 10% dialyzed FBS, 15.4 µM | – | – | 29.3
HPLM + 10% dialyzed FBS, 46.1 µM | – | – | 5.37
RPMI 5 mM glucose + 10% FBS, 0.000781 µM | 111 | – | 113
RPMI 5 mM glucose + 10% FBS, 0.00234 µM | 117 | – | 106
RPMI 5 mM glucose + 10% FBS, 0.00702 µM | 129 | – | 125
RPMI 5 mM glucose + 10% FBS, 0.0211 µM | 121 | – | 101
RPMI 5 mM glucose + 10% FBS, 0.0632 µM | 118 | – | 109
RPMI 5 mM glucose + 10% FBS, 0.19 µM | 132 | – | 114
RPMI 5 mM glucose + 10% FBS, 0.569 µM | 128 | – | 101
RPMI 5 mM glucose + 10% FBS, 1.71 µM | 121 | – | 88.9
RPMI 5 mM glucose + 10% FBS, 5.12 µM | 6.11 | – | 7.21
RPMI 5 mM glucose + 10% FBS, 15.4 µM | 17.5 | – | 11.6
RPMI 5 mM glucose + 10% FBS, 46.1 µM | 2.97 | – | 4.01
RPMI 5 mM glucose + 10% dialyzed FBS, 0.000781 µM | – | 117 | 112
RPMI 5 mM glucose + 10% dialyzed FBS, 0.00234 µM | – | 121 | 121
RPMI 5 mM glucose + 10% dialyzed FBS, 0.00702 µM | – | 115 | 108
RPMI 5 mM glucose + 10% dialyzed FBS, 0.0211 µM | – | 131 | 118
RPMI 5 mM glucose + 10% dialyzed FBS, 0.0632 µM | – | 126 | 113
RPMI 5 mM glucose + 10% dialyzed FBS, 0.19 µM | – | 127 | 128
RPMI 5 mM glucose + 10% dialyzed FBS, 0.569 µM | – | 142 | 92.3
RPMI 5 mM glucose + 10% dialyzed FBS, 1.71 µM | – | 139 | 77.1
RPMI 5 mM glucose + 10% dialyzed FBS, 5.12 µM | – | 7.66 | 7.23
RPMI 5 mM glucose + 10% dialyzed FBS, 15.4 µM | – | 60.8 | 19
RPMI 5 mM glucose + 10% dialyzed FBS, 46.1 µM | – | 2.82 | 4.96

From the supplement of paper PMC11451515
